Like-named read-outs stand apart in the source and are kept apart here.
How the values were obtained:
BRDT-BD1 = target: T1, BRDT-BD1 (Homo sapiens, UniProt Q58F21); assay: Selectivity panel (Table 3); format: binding
T1 construct: BRDT-BD1

CD39 = CD39 (Homo sapiens, UniProt P49961); assay: Selectivity panel (Table 3); format: biochemical
KRAS G12D = KRAS G12D (Homo sapiens, UniProt P01116, G12D); assay: Selectivity panel (Table 3); format: binding
TEAD1 = TEAD1 (Homo sapiens, UniProt P28347); assay: Selectivity panel (Table 3); format: binding
[1] = Metabolite ID in Liver S9; format: in vitro ADME; conditions: HBI-2375 and metabolites in Human liver S9
[2] = PK profile of HBI-2375 in plasma and brain in C57BL/6J mice; format: in vivo; conditions: for AUClast / AUC(0-t) / Tmax at 7 day / Cmax at 7 day / Tmax / Cmax / MRT last: C57BL/6J mice; for concentration at 24 h / Kp / AUC(0-t): C57BL/6J; for concentration at 24 h / Kp / AUC(0-t) / Tmax at 7 day / Cmax at 7 day / Tmax / Cmax / MRT last: mouse; for concentration at 24 h: read-out: Mean Brain Concentration, Cmin = 24 h; for AUClast Ratio, group 2 vs 1 / Cmax Ratio, group 2 vs 1: 80 vs 40 mg/kg PO
Procedure: EXAMPLE 4: PK profile of compound of Formula (IIIb) (HBI-2375, HYBI-84) in plasma and brain in C57BL/6J mice: This study was conducted in accordance with the Study Protocol and Pharmaron (Ningbo) TSP's Standard Operating Procedures (SOPs) following all regulatory protocols. This study was conducted under non-GLP environment.
Following single oral gavage administration of HBI-2375 at 40 mg/kg, 80 mg/kg, and 7-day repeat oral gavage administration at 80 mg/kg in C57BL/6J mice, concentrations of HBI-2375 in plasma and brain were determined by LC-MS/MS methods. […] The maximal concentrations of HBI-2375 in brain were all observed at 4 hr post-dose. […] The exposure of HBI-2375 in plasma and brain of females were closed to that of males, the ratios were 0.989-1.22 for plasma, and 1.10-1.34 for brain.

[3] = both sexes, single PO 40 mg/kg, brain, mean
[4] = both sexes, single PO 40 mg/kg, plasma, mean
[5] = both sexes, single PO 80 mg/kg, brain, mean
[6] = both sexes, single PO 80 mg/kg, plasma, mean
[7] = mice, 7-day consecutive dosing 80 mg/kg
[8] = mice, all dose groups, listed as HBI-2375
[9] = mice, brain, all three dose groups

CD39, sequence (P49961 whole entry, species assumed): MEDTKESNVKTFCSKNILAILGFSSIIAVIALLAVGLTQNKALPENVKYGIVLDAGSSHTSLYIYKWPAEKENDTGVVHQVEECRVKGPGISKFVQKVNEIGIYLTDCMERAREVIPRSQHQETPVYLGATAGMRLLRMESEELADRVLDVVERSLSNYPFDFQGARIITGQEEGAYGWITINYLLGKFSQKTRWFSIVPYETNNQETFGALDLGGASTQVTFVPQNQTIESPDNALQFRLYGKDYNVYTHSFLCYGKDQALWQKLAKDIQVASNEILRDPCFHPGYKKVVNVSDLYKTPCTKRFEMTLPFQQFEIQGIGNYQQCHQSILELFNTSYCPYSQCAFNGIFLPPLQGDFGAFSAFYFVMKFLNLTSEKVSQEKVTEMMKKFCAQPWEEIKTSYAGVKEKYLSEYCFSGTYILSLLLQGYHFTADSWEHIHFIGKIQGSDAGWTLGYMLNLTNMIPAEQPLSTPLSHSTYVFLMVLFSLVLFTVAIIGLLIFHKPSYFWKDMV
KRAS G12D, sequence (P01116 1-188 isoform P01116-2 G12D): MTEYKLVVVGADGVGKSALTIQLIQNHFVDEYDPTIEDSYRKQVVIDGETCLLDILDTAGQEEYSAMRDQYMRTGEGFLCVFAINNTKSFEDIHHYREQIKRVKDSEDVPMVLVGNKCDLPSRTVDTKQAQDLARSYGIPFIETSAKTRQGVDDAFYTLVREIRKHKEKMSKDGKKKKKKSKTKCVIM
TEAD1, sequence (P28347 whole entry, species assumed): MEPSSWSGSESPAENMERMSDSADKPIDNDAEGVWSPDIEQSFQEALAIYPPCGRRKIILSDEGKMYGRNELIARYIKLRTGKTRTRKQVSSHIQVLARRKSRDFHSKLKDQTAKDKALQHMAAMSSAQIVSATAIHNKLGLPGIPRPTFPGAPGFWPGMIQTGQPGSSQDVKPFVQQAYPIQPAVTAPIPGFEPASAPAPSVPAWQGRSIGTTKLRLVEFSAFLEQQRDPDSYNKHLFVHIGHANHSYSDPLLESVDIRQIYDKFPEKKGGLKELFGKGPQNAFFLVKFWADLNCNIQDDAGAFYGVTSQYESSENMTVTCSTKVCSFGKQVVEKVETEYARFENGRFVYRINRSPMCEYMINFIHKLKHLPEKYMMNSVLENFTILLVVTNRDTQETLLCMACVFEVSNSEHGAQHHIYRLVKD

Cc1c(F)c(N)cc(C(=O)Nc2cc(-n3cc(C(=O)N4CCN(C)CC4)nn3)c(F)cc2N2C[C@@H](C)N(C)[C@@H](C)C2)c1Cl [HYBI-084, 5-amino-2-chloro-4-fluoro-N-(4-fluoro-5-(4-(4-methylpiperazine-1-carbonyl)-1H-1,2,3-triazol-1-yl)-2-((3S,5R)-3,4,5-trimethylpiperazin-1-yl)phenyl)-3-methylbenzamide]
IC50 (BRDT-BD1): > 1000 nM
IC50 (CD39): > 1000 nM
IC50 (KRAS G12D): > 1000 nM
IC50 (TEAD1): > 1000 nM
Relative Abundance (UV Peak Area % Total) [1]: 78.70%
AUClast ([2]; 7-day repeat PO 80 mg/kg, brain, female): 11446 ng·h/g
AUClast ([2]; 7-day repeat PO 80 mg/kg, brain, male): 8555 ng·h/g
AUClast ([2]; 7-day repeat PO 80 mg/kg, brain, mean): 10001 ng·h/g
AUClast ([2]; single PO 40 mg/kg, brain, female): 2179 ng·h/g
AUClast ([2]; single PO 40 mg/kg, brain, male): 1879 ng·h/g
AUClast ([2]; single PO 40 mg/kg, brain, mean): 2029 ng·h/g
AUClast ([2]; single PO 80 mg/kg, brain, female): 6129 ng·h/g
AUClast ([2]; single PO 80 mg/kg, brain, male): 5559 ng·h/g
AUClast ([2]; single PO 80 mg/kg, brain, mean): 5844 ng·h/g
concentration at 24 h ([2]; brain, po, 80 mg/kg, Repeat PO Mouse at 80 mg/kg): 136 ng/g
concentration at 24 h ([2]; brain, po, 80 mg/kg, Single PO Mouse at 80 mg/kg): 55 ng/g
Kp ([2]; both sexes, brain, oral, 40 mg/kg, mice, single dosing 40 mg/kg, read-out: AUC exposure in brain as % of that in plasma): 0.283 to 0.332
Kp ([2]; both sexes, brain, oral, 80 mg/kg, mice, single dosing 80 mg/kg, read-out: AUC exposure in brain as % of that in plasma): 0.361 to 0.388
Kp ([2]; both sexes, brain, oral, mice, all dose groups, read-out: brain exposure as % of AUC in plasma): 0.283 to 0.588
AUC(0-t) ([2]; both sexes, plasma, po, 40 mg/kg, single PO 40 mg/kg, mean): 6600 ng·h/mL
AUC(0-t) ([2]; both sexes, plasma, po, 80 mg/kg, 7-day repeat PO 80 mg/kg, mean): 17700 ng·h/mL
AUC(0-t) ([2]; both sexes, plasma, po, 80 mg/kg, single PO 80 mg/kg, mean): 15600 ng·h/mL
Tmax at 7 day ([2]; both sexes, 7-day repeat PO 80 mg/kg, brain): 4 h
Cmax at 7 day ([2]; both sexes, 7-day repeat PO 80 mg/kg, brain, mean): 807 ng/g
Tmax at 7 day ([2]; both sexes, 7-day repeat PO 80 mg/kg, plasma): 1 h
Cmax at 7 day ([2]; both sexes, 7-day repeat PO 80 mg/kg, plasma, mean): 2530 ng/mL
Tmax ([2]; both sexes, single PO 40 mg/kg, brain): 4 h
Cmax [2, 3]: 180 ng/g
MRT last [2, 3]: 8.15 h
Tmax ([2]; both sexes, single PO 40 mg/kg, plasma): 0.5 h
Cmax [2, 4]: 1140 ng/mL
MRT last [2, 4]: 5.26 h
Tmax ([2]; both sexes, single PO 80 mg/kg, brain): 4 h
Cmax [2, 5]: 528 ng/g
MRT last [2, 5]: 8.21 h
Tmax ([2]; both sexes, single PO 80 mg/kg, plasma): 0.5 h
Cmax [2, 6]: 3970 ng/mL
MRT last [2, 6]: 5.16 h
Kp ([2]; female, brain, po, 40 mg/kg, mice, single PO 40 mg/kg, female, read-out: AUClast Ratio Brain/Plasma): 0.332
Kp ([2]; female, brain, po, 80 mg/kg, mice, repeat PO 80 mg/kg, female, read-out: AUClast Ratio Brain/Plasma): 0.588
Kp ([2]; female, brain, po, 80 mg/kg, mice, single PO 80 mg/kg, female, read-out: AUClast Ratio Brain/Plasma): 0.388
AUC(0-t) ([2]; female, plasma, po, 40 mg/kg, single PO 40 mg/kg): 6560 ng·h/mL
AUC(0-t) ([2]; female, plasma, po, 80 mg/kg, 7-day repeat PO 80 mg/kg): 19500 ng·h/mL
AUC(0-t) ([2]; female, plasma, po, 80 mg/kg, single PO 80 mg/kg): 15800 ng·h/mL
Kp ([2]; male, brain, po, 40 mg/kg, mice, single PO 40 mg/kg, male, read-out: AUClast Ratio Brain/Plasma): 0.283
Kp ([2]; male, brain, po, 80 mg/kg, mice, repeat PO 80 mg/kg, male, read-out: AUClast Ratio Brain/Plasma): 0.536
Kp ([2]; male, brain, po, 80 mg/kg, mice, single PO 80 mg/kg, male, read-out: AUClast Ratio Brain/Plasma): 0.361
AUC(0-t) ([2]; male, plasma, po, 40 mg/kg, single PO 40 mg/kg): 6640 ng·h/mL
AUC(0-t) ([2]; male, plasma, po, 80 mg/kg, 7-day repeat PO 80 mg/kg): 16000 ng·h/mL
AUC(0-t) ([2]; male, plasma, po, 80 mg/kg, single PO 80 mg/kg): 15400 ng·h/mL
drug accumulation in brain [2, 7]: no obvious drug accumulation
drug accumulation in plasma [2, 7]: no obvious drug accumulation
mean concentration at 24 hr post-dose as % of Cmax ([2]; mice, 7-day repeat PO 80 mg/kg, brain, both sexes): 14.4-18.9%
mean concentration at 24 hr post-dose as % of Cmax ([2]; mice, 7-day repeat PO 80 mg/kg, plasma, both sexes): 2.68-3.94%
AUClast Ratio, group 2 vs 1 ([2]; mice, brain, female): 2.81
Cmax Ratio, group 2 vs 1 ([2]; mice, brain, female): 2.89
AUClast Ratio, group 2 vs 1 ([2]; mice, brain, male): 2.96
Cmax Ratio, group 2 vs 1 ([2]; mice, brain, male): 3.00
AUClast Ratio, group 2 vs 1 ([2]; mice, plasma, female): 2.41
Cmax Ratio, group 2 vs 1 ([2]; mice, plasma, female): 3.47
AUClast Ratio, group 2 vs 1 ([2]; mice, plasma, male): 2.32
Cmax Ratio, group 2 vs 1 ([2]; mice, plasma, male): 3.50
distribution ([2]; mice, all dose groups): distributed to brain
duration of brain exposure ([2]; mice, all dose groups): 24 h
gender-related differences in exposure in brain [2, 8]: No gender-related differences
gender-related differences in exposure in plasma [2, 8]: No gender-related differences
AUClast ratios females/males [2, 9]: 1.10-1.34
Cmax ratios females/males [2, 9]: 1.11-1.24
AUClast ratios 7-day repeat vs single-dose 80 mg/kg ([2]; mice, brain, both sexes): 1.54-1.87
AUClast ratios 80 vs 40 mg/kg single dose ([2]; mice, brain, both sexes): 2.81-2.96
Cmax ratios 7-day repeat vs single-dose 80 mg/kg ([2]; mice, brain, both sexes): 1.44-1.60
AUClast ratios females/males ([2]; mice, plasma, all three dose groups): 0.989-1.22
